Format in all cases: cell-based
In one assay the target is T1, human TLR7 (Homo sapiens, UniProt Q9NYK1).
T1 construct: host or cells: HEK-Blue cells
T1 sequence (Q9NYK1 27-1049): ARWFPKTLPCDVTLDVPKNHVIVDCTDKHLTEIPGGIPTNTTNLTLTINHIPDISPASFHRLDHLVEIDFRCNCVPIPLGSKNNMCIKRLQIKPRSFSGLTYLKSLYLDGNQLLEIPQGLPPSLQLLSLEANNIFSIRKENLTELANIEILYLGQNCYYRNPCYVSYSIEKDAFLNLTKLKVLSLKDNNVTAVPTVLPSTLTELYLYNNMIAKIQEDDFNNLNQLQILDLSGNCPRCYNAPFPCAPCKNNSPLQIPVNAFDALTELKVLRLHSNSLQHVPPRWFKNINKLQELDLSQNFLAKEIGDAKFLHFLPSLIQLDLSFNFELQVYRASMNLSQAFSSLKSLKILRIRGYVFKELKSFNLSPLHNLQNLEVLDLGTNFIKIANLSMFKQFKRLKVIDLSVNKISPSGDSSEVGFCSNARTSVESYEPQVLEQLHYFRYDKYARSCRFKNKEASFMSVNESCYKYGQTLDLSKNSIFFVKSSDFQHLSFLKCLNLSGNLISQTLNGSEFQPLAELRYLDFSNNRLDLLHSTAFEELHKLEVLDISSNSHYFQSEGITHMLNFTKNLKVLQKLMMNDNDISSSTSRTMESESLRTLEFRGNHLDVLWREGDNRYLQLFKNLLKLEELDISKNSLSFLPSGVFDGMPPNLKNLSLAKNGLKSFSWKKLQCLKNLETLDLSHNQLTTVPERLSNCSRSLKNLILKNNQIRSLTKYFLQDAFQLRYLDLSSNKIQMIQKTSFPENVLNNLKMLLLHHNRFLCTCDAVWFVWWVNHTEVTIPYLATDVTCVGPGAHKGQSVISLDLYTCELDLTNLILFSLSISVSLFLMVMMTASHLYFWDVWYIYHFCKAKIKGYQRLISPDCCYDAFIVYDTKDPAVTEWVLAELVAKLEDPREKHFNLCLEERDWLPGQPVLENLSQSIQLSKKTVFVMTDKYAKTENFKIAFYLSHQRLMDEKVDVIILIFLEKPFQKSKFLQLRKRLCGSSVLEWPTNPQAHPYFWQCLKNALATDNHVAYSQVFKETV
The assay is described as follows: TLR7 inhibition reporter assay (HEK-Blue cells, SEAP reporter, gardiquimod stimulation). As to conditions: HEK-Blue cells overexpressing human TLR7, SEAP reporter, gardiquimod 7.5 μM. Put shortly:
(§1)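 HEK-Blue cells with NF-κB/AP-1-driven SEAP reporter, pre-treated 30 min at room temperature with compound (0.05 nM-50 μM). Stimulants: gardiquimod 7.5 μM (TLR7), R848 15.9 μM (TLR8) or ODN2006 5 nM (TLR9). SEAP measured after 22 h at 37° C.; percent inhibition versus agonist-plus-DMSO and known-inhibitor wells.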

Another assay concerns the target T2, human TLR8 (Homo sapiens, UniProt Q9NR97).
T2 construct: host or cells: HEK-Blue cells
T2 sequence (Q9NR97 27-1041): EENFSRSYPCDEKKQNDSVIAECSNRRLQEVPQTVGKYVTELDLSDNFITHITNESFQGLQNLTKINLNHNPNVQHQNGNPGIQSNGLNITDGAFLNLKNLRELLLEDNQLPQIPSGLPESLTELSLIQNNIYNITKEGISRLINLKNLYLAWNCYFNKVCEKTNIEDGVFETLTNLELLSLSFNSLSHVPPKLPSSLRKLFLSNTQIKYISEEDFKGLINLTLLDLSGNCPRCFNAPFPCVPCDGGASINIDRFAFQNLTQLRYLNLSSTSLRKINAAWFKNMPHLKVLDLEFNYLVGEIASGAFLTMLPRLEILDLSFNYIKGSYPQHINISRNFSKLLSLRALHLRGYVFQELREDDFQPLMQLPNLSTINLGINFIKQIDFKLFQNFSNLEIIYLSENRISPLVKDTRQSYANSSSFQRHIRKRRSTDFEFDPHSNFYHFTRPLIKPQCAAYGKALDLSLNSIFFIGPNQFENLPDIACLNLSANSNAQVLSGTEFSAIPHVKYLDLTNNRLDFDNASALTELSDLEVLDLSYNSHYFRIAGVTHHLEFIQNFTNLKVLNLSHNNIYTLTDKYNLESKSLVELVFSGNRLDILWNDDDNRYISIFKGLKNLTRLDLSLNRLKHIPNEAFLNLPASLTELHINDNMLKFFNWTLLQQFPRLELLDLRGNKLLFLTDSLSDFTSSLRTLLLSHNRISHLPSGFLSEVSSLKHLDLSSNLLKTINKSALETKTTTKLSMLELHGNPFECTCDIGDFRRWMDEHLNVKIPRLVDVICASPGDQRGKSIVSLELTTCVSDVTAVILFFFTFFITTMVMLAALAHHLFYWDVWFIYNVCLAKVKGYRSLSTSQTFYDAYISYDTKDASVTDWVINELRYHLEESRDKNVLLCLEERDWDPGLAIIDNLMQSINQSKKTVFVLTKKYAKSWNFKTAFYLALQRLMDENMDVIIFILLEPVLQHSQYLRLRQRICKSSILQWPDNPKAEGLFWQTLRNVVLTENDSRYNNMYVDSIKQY
The assay is described as follows: TLR8 inhibition reporter assay (HEK-Blue cells, SEAP reporter, R848 stimulation). As to conditions: HEK-Blue cells overexpressing human TLR8, SEAP reporter, R848 15.9 μM. In a few lines:
as §1
(In general: A reporter such as luciferase makes a cellular process visible.)

The target in a further assay is T3, human TLR9 (Homo sapiens, UniProt Q9NR96).
T3 construct: host or cells: HEK-Blue cells
T3 sequence (Q9NR96 26-1032): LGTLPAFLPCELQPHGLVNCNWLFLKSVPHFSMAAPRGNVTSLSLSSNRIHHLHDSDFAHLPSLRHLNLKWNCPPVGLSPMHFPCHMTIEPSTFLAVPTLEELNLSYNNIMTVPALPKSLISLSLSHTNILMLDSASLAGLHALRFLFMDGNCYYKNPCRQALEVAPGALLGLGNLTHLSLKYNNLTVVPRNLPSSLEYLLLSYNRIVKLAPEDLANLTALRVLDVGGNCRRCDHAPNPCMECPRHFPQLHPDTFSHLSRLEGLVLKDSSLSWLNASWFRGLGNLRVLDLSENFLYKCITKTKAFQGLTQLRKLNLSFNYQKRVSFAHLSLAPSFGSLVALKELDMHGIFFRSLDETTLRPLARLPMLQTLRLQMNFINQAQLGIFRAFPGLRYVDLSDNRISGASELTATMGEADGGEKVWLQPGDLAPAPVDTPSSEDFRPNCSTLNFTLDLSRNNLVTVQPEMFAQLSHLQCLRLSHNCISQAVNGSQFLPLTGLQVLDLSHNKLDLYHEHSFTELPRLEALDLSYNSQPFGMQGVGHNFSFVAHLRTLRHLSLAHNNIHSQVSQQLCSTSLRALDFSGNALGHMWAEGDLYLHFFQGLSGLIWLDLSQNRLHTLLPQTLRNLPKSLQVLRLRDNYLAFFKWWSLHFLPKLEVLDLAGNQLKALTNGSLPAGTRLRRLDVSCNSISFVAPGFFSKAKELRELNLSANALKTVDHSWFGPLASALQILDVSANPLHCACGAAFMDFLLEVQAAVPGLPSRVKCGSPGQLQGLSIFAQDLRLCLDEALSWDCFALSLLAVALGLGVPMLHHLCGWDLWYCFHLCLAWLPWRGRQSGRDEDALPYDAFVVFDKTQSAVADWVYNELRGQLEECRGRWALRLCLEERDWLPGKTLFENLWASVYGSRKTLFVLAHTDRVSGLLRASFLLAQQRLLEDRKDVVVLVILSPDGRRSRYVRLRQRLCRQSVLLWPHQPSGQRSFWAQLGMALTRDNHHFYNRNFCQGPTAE
The assay is described as follows: TLR9 inhibition reporter assay (HEK-Blue cells, SEAP reporter, ODN2006 stimulation). As to conditions: HEK-Blue cells overexpressing human TLR9, SEAP reporter, ODN2006 5 nM. In a few lines: as §1

Broadly, the IC50 is the midpoint of a concentration-inhibition curve.

With `Cc1cc(-c2[nH]c3ccc(C4CCCCC4)cc3c2C(C)C)cn(C)c1=O` [Example 470], the IC50 against human TLR7 came out at 568 nM; at human TLR8 it was 3130 nM; at human TLR9, 18300 nM.

With `Cc1cc(-c2[nH]c3ccc(C4CCC(NC5COC5)CC4)cc3c2C(C)C)cc(C)n1` (stereo not drawn) [Example 60], the concentration for half-maximal inhibition (IC50) stood at 0.26 nM against human TLR7, 1.8 nM against human TLR8 and 501 nM against human TLR9.

Regarding `COc1cc(-c2[nH]c3ccc(C4CN(C)C4)cc3c2C(C)C)cn2ncnc12` [Example 273], the concentration for half-maximal inhibition (IC50) turned out to be 28 nM against human TLR7, 97 nM against human TLR8 and 5250 nM at human TLR9.

On to `COc1cc(-c2[nH]c3ccc(C4CCC(N(C)C(C)C)C4)cc3c2C(C)C)cn2ncnc12` (single isomer, unassigned) [Example 275, N-isopropyl-3-(3-isopropyl-2-(8-methoxy-[1,2,4]triazolo[1,5-a]pyridin-6-yl)-1H-indol-5-yl)-N-methylcyclopentan-1-amine], for which the IC50 against human TLR7 was found to be 0.86 nM; at human TLR8 it was 0.23 nM; on human TLR9, 1270 nM.

As for `Cc1c(-c2[nH]c3ccc(C4CCC(NCC(C)(C)O)CC4)cc3c2C(C)C)cn2ncnc2c1C` (stereo not drawn) [Example 112], the IC50 at human TLR7 was 6 nM; against human TLR8 it was 2 nM; on human TLR9, 2320 nM.

Take `COc1cc(-c2[nH]c3ccc(C4CCC(N)CC4)cc3c2C(C)C)cn2ncnc12` (single isomer, unassigned) [Example 2, 4-(3-isopropyl-2-(8-methoxy-[1,2,4]triazolo[1,5-a]pyridin-6-yl)-1H-indol-5-yl) cyclohexanamine]: the IC50 is 0.37 nM on human TLR7, 1.1 nM against human TLR8 and 3420 nM against human TLR9.

Turning to `COc1cc(-c2[nH]c3ccc(C4CCC(NCC(F)(F)F)CC4)cc3c2C(C)C)cn2ncnc12` (single isomer, unassigned) [Example 110], the figures for the IC50 at human TLR7, at human TLR8 and against human TLR9 were 24 nM, 396 nM and 37000 nM, respectively.

On to `Cc1c(-c2[nH]c3ccc(C4CC(N(C)CCS(C)(=O)=O)C4)cc3c2C(C)C)cn2ncnc2c1C` (stereo not drawn) [Example 582], for which the values for the IC50 against human TLR7, against human TLR8 and against human TLR9 were 3 nM, 0.56 nM and 35700 nM, respectively.

For the molecule `Cc1c(-c2[nH]c3ccc(C4CCC(NC5COC5)CC4)cc3c2C(C)C)cn(C)c(=O)c1C` (stereo not drawn) [Example 478], the IC50 at human TLR7 was 20 nM; against human TLR8, 7.6 nM; against human TLR9, 10200 nM.

Take `COc1cc(-c2[nH]c3ccc(C4CCC(N5CC(O)C5)CC4)cc3c2C(C)C)cn2ncnc12` (single isomer, unassigned) [Example 20]: the IC50 against human TLR7 turned out to be 0.3 nM; at human TLR8, 0.81 nM; on human TLR9, 346 nM.

On to `Cc1cc(-c2[nH]c3ccc(C4CCC(NC5COC5)CC4)cc3c2C(C)C)cn2ncnc12` (stereo not drawn) [Example 57], for which the results for the IC50 on human TLR7, against human TLR8 and at human TLR9 were 1 nM, 8.2 nM and 6060 nM, respectively.

For the molecule `COc1cc(-c2[nH]c3ccc(C4CCC(N5CCCC(F)(F)C5)CC4)cc3c2C(C)C)cn2ncnc12` (stereo not drawn) [Example 35], the IC50 amounted to 55 nM against human TLR7, 122 nM against human TLR8 and 18000 nM against human TLR9.

In the case of `COc1cc(-c2[nH]c3ccc(C4CCC(NC5CC5)CC4)cc3c2C(C)C)cn2ncnc12` (stereo not drawn) [Example 10], the IC50 against human TLR7 was determined as 0.17 nM; against human TLR8 it was 0.47 nM; on human TLR9, 1260 nM.

Consider `CNC(=O)CN1CC(c2ccc3[nH]c(-c4cn5ncnc5c(C)c4C)c(C(C)C)c3c2)OCC1(C)C` (stereo not drawn) [Example 389], for which the results for the IC50 against human TLR7, at human TLR8 and against human TLR9 were 22 nM, 51 nM and more than 50000 nM, respectively.

For `Cc1c(-c2[nH]c3ccc(C4CCC(NC5COC5)CC4)cc3c2C(C)C)cn2cnnc2c1C` (stereo not drawn) [Example 523], the IC50 came out at 0.48 nM at human TLR7, 5.1 nM at human TLR8 and 2720 nM on human TLR9.

Take `Cc1cc(-c2[nH]c3ccc(CC4CCCN4Cc4ccccc4)cc3c2C(C)C)cn2ncnc12` (single isomer, unassigned) [Example 397, 5-[(1-benzylpyrrolidin-2-yl)methyl]-2-{8-methyl-[1,2,4]triazolo[1,5-a]pyridin-6-yl}-3-(propan-2-yl)-1H-indole]: the IC50 on human TLR7 was 3 nM; on human TLR8, 5.4 nM; at human TLR9 it was 1600 nM.

`COc1cc(-c2[nH]c3ccc(C4CNCCO4)cc3c2C(C)C)cn2ncnc12` (stereo not drawn) [Example 284]: the results for the IC50 on human TLR7, at human TLR8 and against human TLR9 were 1 nM, 0.85 nM and 1820 nM, respectively.

In the case of `CC(C)c1c(-c2ccnc3[nH]ncc23)[nH]c2ccc(C(C)C3CCNCC3)cc12` (stereo not drawn) [Example 423], the IC50 against human TLR7 was determined as 34 nM; on human TLR8 it was 16 nM; at human TLR9, 2080 nM.

For the molecule `COc1cc(-c2[nH]c3ccc(C4CCC(NCC(N)=O)CC4)cc3c2C(C)C)cn2ncnc12` (stereo not drawn) [Example 109], the IC50 on human TLR7 is 0.83 nM; at human TLR8, 4.1 nM; against human TLR9, 1600 nM.
